According to patent publication US5807742A, “Neurokinin receptor cell lines” (Merrell Pharmaceuticals Inc., priority 1996, dated 1998):
Starred links: 1 amine or outer side, 2 acyl side, 3 side chain; linkers in the order of their positions; H or OH if unused. Non-standard residues stand in square brackets, D forms with d. Residues, ends and D or L forms follow the SMILES beside them. NMeF = CN[C@@H](Cc1ccccc1)C(=O)O; Suc = O=C(CCC(=O)[*:2])[*:1]

Tests used:
[1] = target: T1, neurokinin A receptor (Bos taurus, UniProt P05363); experiment: [3H]inositol-1-phosphate (IP1) accumulation in SKLKB82#3 cells; type: cell-based, bovine
T1 construct: expressed in transfected cells
T1 sequence (P05363 1-384): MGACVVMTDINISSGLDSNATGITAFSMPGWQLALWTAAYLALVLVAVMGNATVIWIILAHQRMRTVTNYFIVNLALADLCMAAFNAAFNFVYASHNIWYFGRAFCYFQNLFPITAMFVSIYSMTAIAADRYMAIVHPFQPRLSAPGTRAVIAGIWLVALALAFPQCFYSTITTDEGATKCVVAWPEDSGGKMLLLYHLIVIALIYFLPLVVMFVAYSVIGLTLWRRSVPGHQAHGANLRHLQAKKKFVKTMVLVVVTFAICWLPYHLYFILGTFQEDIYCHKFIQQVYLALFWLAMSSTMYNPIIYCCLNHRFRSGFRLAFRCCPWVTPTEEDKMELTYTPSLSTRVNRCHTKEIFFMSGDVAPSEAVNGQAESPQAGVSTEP
Description: The culture was incubated for 22-24 hours under the same conditions. After this incubation, the cells were washed once with 1.0 ml of IMDM for ten minutes and incubated for ten minutes in 0.2 ml of incubation buffer (IMDM with 10 mM LiCl, 40 ug/ml bacitracin, 4 ug/ml leupeptin, and 4 ug/ml chymostatin). […] The reaction was terminated in 60 minutes by aspiring the media and adding 0.5 ml methanol. The cells were scraped from the wells and placed into chloroform resistant tubes. A second aliquot of 0.5 ml methanol was used to collect the remaining cells. The cell suspensions were mixed with 1.0 ml chloroform and 0.5 ml double distilled water to obtain a two phase separation. After centrifugation at 4200g for 10 minutes, 0.9 ml aliquots of the upper phase were added to 2.0 ml of distilled water and mixed. This mixture was passed through poly prep columns (Bio-Rad Laboratories, Richmond, Calif.) which consisted of 2.0 ml slurry of ten percent anion exchange resin in formate form (AG1-X8, 100-200 mesh, Bio-Rad Laboratories, Richmond, Calif.). The columns were washed three times with 5.0 ml of distilled water and two times with 5.0 ml of 5 mM sodium tetraborate/60 mM sodium formate (Baker, Phillipsburg, N.J.). […] The eluate was mixed with nine ml of Aquamix (West Chem., San Diego, Calif.) and the radioactivity was counted.

[2] = target: T1, neurokinin A receptor; experiment: [125I]NKA receptor binding (saturation/Scatchard and competition) in B82 cells transfected with pSKR56S cDNA (SKLKB82#n); set-up: species or system bovine; conditions: SKLKB82#3 cells; FIG. 4
Description: (§1) The homogenate is centrifuged at 48,000×g for 10 min at 4° C.

[3] = target: T2, NKA receptor (hamster urinary bladder) (Mesocricetus auratus, UniProt P51144); experiment: [125I]NKA receptor binding in hamster urinary bladder membranes (standard control); conditions: FIG. 4
T2 construct: the hamster urinary bladder membranes were run as a standard control; from tissue; host or cells: hamster urinary bladder membranes
T2 sequence (P51144 1-384): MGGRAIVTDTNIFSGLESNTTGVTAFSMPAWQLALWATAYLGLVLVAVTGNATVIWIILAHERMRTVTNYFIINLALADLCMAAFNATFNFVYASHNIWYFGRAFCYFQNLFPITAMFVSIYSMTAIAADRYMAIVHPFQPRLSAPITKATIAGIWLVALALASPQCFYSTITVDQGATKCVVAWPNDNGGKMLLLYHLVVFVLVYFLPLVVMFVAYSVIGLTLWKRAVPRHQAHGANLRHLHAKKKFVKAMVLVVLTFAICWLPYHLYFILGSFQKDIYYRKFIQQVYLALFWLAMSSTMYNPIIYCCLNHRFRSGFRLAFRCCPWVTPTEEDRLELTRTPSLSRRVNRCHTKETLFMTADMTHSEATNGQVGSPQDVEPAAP
Description: as §1

Structure (SMILES): CSCC[C@H](NC(=O)[C@H](CC(C)C)NC(=O)CNC(=O)[C@H](Cc1ccccc1)N(C)C(=O)[C@H](Cc1ccccc1)NC(=O)[C@H](CC(=O)O)NC(=O)CCC(=O)O)C(N)=O [senktide] (Suc-DF[NMeF]GLM-NH2)
- EC50 [1]: ~1.3 mM
- potency rank-order, inhibition of [125I]NKA receptor binding (KI) [2]: followed by Nle^10 NKA (4-10), substance P, and senktide
- potency rank-order, inhibition of [125I]NKA receptor binding (KI) [3]: followed by Nle^10 NKA (4-10), substance P, and senktide
